Results: ChEMBL document CHEMBL5257053, “Discovery of Orally Bioavailable FGFR2/FGFR3 Dual Inhibitors via Structure-Guided Scaffold Repurposing Approach” (ACS Med Chem Lett, 2023)
Converted amounts (≈) assume the structure as drawn.

Legend:
[1] = Solubility of compound in fasted state stimulated intestinal fluid; type: ADME; details: fasted state simulated intestinal fluid
[2] = Half life in Sprague-Dawley rat at 3 mg/kg, po or 1 mg/kg, iv measured up to 24 hrs; type: ADME, organism-based; details: in vivo
[3] = Oral bioavailability in Sprague-Dawley rat at 3 mg/kg measured up to 24 hrs; type: ADME, organism-based; details: in vivo
Activin receptor type-1 = molecular target: T1, Activin receptor type-1 (Homo sapiens, UniProt Q04771); experiment: Inhibition of recombinant human ALK2 (147 to end residues) expressed in Sf9 infected baculovirus expression system using TRF0130 as substrate incubated for 3 hrs in presence of […]
T1 sequence (Q04771 whole entry): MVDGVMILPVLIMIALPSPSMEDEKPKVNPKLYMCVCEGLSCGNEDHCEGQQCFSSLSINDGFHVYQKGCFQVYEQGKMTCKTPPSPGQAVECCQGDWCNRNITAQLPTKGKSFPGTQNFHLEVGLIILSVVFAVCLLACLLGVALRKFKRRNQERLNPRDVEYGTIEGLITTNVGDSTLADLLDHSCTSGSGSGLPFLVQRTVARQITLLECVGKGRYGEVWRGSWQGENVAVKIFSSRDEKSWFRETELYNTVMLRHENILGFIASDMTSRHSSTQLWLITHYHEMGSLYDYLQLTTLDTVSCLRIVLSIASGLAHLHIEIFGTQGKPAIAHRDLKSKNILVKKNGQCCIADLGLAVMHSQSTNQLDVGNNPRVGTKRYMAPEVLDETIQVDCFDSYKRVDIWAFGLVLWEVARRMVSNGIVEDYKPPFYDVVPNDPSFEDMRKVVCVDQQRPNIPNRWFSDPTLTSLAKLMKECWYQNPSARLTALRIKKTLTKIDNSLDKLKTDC

[4] = Clearance in cynomolgus monkey at 3 mg/kg, po or 1 mg/kg, iv measured up to 24 hrs; type: ADME, organism-based, Macaca fascicularis; details: in vivo
[5] = AUCinfinity in cynomolgus monkey at 3 mg/kg, po measured up to 24 hrs; type: ADME, organism-based, Macaca fascicularis; parameters: time < 24 hrs, dose 3 mg/kg, route po; details: in vivo
[6] = molecular target: Fibroblast growth factor receptor 3 (Mus musculus, UniProt Q61851); experiment: Inhibition of FGFR3 phosphorylation in mouse BaF3 cells incubated for 2 hrs; type: cell-based
[7] = Cmax in Sprague-Dawley rat at 3 mg/kg, po measured up to 24 hrs; type: ADME, organism-based; parameters: dose 3 mg/kg, time < 24 hrs, route po; details: in vivo
Cytochrome P450 2D6 = Cytochrome P450 2D6 (Homo sapiens, UniProt P10635); experiment: Inhibition of CYP2D6 (unknown origin); type: ADME
Cytochrome P450 2D6, sequence (P10635 whole entry): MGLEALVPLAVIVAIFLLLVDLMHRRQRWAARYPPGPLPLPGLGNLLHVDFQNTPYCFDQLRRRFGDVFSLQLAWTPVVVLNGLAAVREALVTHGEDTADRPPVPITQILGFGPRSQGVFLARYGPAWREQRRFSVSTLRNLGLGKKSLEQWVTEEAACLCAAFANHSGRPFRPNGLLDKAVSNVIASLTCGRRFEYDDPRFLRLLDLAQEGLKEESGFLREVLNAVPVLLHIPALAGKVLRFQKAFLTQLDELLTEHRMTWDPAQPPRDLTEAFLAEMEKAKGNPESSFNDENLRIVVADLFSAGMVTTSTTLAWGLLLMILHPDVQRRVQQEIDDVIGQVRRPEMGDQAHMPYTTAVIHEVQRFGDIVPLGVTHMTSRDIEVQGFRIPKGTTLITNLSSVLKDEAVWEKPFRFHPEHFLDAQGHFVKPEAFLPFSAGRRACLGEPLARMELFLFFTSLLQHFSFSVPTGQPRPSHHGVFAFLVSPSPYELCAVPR

[8] = Half life in cynomolgus monkey at 3 mg/kg, po or 1 mg/kg, iv measured up to 24 hrs; type: ADME, organism-based, Macaca fascicularis; details: in vivo
[9] = molecular target: Vascular endothelial growth factor receptor 2 (Homo sapiens, UniProt P35968); experiment: Inhibition of KDR (unknown origin) using peptide substrate incubated for 90 mins in presence of ATP by HTRF method
Vascular endothelial growth factor receptor 2, sequence (P35968 whole entry, the tested form may be a part): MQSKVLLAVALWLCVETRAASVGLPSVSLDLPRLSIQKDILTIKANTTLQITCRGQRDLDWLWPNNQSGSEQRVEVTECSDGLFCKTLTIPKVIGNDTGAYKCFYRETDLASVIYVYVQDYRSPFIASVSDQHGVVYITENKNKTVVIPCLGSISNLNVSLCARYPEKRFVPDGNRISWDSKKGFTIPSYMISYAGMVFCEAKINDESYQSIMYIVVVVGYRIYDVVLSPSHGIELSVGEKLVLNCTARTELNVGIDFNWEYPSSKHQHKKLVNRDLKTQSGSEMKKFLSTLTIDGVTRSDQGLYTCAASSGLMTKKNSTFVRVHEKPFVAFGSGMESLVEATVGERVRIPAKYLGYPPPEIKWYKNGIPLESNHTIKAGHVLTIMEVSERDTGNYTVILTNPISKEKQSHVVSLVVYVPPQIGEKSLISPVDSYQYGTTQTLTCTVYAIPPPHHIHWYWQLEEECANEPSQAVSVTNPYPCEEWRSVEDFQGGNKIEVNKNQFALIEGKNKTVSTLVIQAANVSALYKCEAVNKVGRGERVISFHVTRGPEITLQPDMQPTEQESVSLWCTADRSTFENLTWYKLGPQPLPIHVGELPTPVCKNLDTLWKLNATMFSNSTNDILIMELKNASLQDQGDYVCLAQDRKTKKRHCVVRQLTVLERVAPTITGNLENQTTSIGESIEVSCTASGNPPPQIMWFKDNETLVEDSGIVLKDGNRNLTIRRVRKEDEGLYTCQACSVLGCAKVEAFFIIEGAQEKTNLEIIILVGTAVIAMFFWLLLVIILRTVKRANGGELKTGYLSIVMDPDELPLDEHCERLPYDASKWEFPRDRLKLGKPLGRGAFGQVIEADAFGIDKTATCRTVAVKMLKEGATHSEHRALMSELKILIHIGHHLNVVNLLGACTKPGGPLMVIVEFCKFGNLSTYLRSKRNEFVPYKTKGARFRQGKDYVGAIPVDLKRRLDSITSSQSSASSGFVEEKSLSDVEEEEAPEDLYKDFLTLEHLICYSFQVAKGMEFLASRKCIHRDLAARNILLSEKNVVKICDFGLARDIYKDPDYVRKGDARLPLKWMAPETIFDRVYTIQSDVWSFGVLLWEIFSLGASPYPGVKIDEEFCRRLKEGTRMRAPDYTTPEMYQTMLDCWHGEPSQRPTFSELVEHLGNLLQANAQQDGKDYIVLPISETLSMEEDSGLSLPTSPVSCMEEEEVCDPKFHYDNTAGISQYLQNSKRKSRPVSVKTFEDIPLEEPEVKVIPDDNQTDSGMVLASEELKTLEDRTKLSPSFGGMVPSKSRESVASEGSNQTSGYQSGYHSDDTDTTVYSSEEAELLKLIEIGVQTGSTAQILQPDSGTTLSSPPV

[10] = molecular target: Fibroblast growth factor receptor 4 (Homo sapiens, UniProt P22455); experiment: Inhibition of recombinant human FGFR4 (460 to 802 residues) using biotin-EQEDEPEGDYFEWLE-amide as substrate preincubated for 5 to 10 mins followed by substrate addition and measured after 1 hr in presence of ATP by HTRF assay
[11] = Clearance in Sprague-Dawley rat at 3 mg/kg, po or 1 mg/kg, iv measured up to 24 hrs; type: ADME, organism-based; details: in vivo
[12] = Volume of distribution at steady state in Sprague-Dawley rat at 3 mg/kg, po or 1 mg/kg, iv measured up to 24 hrs; type: ADME, organism-based; details: in vivo
[13] = AUCinfinity in Sprague-Dawley rat at 3 mg/kg, po measured up to 24 hrs; type: ADME, organism-based; parameters: dose 3 mg/kg, time < 24 hrs, route po; details: in vivo
[14] = Permeability in human Caco-2 cells incubated for 120 mins by LC-MS/MS analysis; type: ADME, cell-based; details: read-out: permeability
[15] = Volume of distribution at steady state in cynomolgus monkey at 3 mg/kg, po or 1 mg/kg, iv measured up to 24 hrs; type: ADME, organism-based, Macaca fascicularis; details: in vivo
[16] = molecular target: T2, Fibroblast growth factor receptor 2 (Homo sapiens, UniProt P21802); experiment: Inhibition of FGFR2 in human KATOIII cells incubated for 1 hr; type: cell-based, KATO III stomach cancer cell line
T2 sequence (P21802 whole entry): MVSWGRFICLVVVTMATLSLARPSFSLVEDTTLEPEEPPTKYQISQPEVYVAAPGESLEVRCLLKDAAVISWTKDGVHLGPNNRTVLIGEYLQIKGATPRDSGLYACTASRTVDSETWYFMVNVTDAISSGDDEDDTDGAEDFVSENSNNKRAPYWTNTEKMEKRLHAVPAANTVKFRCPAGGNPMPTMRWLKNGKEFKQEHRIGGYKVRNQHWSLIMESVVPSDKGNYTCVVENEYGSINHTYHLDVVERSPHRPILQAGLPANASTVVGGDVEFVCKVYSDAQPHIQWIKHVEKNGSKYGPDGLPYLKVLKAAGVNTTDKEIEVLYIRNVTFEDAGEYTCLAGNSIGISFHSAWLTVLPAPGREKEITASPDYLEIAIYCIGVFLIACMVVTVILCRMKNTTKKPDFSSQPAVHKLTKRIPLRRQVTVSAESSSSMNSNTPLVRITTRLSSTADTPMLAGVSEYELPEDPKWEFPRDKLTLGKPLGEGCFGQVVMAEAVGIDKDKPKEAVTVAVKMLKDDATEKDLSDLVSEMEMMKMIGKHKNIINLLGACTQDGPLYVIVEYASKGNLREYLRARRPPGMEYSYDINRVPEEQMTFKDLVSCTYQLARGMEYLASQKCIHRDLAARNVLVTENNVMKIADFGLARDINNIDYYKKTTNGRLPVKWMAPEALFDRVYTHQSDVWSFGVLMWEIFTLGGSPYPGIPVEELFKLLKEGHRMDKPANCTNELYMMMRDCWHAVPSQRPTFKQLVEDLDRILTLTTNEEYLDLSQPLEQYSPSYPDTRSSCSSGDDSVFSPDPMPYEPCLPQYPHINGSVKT

Cytochrome P450 2B6 = molecular target: T3, Cytochrome P450 2B6 (Homo sapiens, UniProt P20813); experiment: Inhibition of CYP2B6 (unknown origin); type: ADME
T3 sequence (P20813 whole entry): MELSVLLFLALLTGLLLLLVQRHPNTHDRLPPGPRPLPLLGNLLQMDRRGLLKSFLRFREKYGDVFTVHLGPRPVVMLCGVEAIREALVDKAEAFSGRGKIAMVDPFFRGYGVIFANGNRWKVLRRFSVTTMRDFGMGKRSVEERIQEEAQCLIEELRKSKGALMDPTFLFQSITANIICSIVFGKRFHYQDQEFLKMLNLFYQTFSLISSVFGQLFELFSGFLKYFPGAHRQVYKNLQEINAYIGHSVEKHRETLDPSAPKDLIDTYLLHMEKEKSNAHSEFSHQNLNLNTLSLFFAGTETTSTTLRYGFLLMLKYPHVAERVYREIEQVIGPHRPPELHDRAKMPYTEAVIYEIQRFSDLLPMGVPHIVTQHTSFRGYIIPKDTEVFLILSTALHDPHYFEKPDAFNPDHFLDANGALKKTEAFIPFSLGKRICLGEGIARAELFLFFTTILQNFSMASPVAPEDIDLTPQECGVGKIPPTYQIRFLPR

[17] = Cmax in cynomolgus monkey at 3 mg/kg, po measured up to 24 hrs; type: ADME, organism-based, Macaca fascicularis; parameters: time < 24 hrs, dose 3 mg/kg, route po; details: in vivo
[18] = molecular target: T2, Fibroblast growth factor receptor 2; experiment: Inhibition of recombinant human FGFR2 (400 to 821 residues) using biotin-EQEDEPEGDYFEWLE-amide as substrate preincubated for 5 to 10 mins followed by substrate addition and measured after 1 hr in presence of ATP by HTRF assay
Cytochrome P450 1A2 = molecular target: T4, Cytochrome P450 1A2 (Homo sapiens, UniProt P05177); experiment: Inhibition of CYP1A2 (unknown origin); type: ADME
T4 sequence (P05177 whole entry): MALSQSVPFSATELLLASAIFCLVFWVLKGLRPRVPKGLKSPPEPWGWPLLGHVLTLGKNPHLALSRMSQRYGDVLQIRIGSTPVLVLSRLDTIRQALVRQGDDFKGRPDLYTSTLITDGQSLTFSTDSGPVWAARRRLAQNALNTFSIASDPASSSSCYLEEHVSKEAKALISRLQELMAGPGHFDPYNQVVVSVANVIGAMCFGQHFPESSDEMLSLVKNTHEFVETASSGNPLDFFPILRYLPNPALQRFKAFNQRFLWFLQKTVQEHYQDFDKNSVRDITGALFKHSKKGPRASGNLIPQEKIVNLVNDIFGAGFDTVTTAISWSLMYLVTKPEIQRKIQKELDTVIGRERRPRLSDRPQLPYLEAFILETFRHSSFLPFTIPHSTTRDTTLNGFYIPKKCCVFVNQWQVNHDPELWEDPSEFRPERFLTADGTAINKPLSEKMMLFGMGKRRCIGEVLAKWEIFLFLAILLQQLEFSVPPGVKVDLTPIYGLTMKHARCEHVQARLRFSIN

[19] = Solubility of compound in stimulated gastric fluid; type: ADME; details: simulated gastric fluid
Cytochrome P450 2C9 = Cytochrome P450 2C9 (Homo sapiens, UniProt P11712); experiment: Inhibition of CYP2C9 (unknown origin); type: ADME
Cytochrome P450 2C9, sequence (P11712 whole entry): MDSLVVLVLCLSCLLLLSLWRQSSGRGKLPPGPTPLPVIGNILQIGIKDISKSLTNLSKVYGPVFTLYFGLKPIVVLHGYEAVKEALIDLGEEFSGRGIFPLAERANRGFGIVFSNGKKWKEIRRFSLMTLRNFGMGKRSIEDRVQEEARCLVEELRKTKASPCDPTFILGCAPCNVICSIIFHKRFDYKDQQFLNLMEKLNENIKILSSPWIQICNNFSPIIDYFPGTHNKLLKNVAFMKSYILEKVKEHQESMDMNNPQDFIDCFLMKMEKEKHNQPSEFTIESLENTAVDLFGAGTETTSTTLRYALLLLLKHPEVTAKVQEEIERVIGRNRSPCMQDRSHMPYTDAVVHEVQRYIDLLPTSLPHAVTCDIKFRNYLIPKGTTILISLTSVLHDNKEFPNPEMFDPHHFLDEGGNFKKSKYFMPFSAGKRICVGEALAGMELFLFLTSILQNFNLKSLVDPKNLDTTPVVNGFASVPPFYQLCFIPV

[20] = Drug concentration in NSG mouse plasma at 30 mg/kg, po measured after 2 hrs; type: ADME, organism-based
hERG (KCNH2) = hERG (KCNH2) (Homo sapiens, UniProt Q12809); experiment: Inhibition of human ERG at 10 uM relative to control; type: toxicity
hERG (KCNH2), sequence (Q12809 whole entry): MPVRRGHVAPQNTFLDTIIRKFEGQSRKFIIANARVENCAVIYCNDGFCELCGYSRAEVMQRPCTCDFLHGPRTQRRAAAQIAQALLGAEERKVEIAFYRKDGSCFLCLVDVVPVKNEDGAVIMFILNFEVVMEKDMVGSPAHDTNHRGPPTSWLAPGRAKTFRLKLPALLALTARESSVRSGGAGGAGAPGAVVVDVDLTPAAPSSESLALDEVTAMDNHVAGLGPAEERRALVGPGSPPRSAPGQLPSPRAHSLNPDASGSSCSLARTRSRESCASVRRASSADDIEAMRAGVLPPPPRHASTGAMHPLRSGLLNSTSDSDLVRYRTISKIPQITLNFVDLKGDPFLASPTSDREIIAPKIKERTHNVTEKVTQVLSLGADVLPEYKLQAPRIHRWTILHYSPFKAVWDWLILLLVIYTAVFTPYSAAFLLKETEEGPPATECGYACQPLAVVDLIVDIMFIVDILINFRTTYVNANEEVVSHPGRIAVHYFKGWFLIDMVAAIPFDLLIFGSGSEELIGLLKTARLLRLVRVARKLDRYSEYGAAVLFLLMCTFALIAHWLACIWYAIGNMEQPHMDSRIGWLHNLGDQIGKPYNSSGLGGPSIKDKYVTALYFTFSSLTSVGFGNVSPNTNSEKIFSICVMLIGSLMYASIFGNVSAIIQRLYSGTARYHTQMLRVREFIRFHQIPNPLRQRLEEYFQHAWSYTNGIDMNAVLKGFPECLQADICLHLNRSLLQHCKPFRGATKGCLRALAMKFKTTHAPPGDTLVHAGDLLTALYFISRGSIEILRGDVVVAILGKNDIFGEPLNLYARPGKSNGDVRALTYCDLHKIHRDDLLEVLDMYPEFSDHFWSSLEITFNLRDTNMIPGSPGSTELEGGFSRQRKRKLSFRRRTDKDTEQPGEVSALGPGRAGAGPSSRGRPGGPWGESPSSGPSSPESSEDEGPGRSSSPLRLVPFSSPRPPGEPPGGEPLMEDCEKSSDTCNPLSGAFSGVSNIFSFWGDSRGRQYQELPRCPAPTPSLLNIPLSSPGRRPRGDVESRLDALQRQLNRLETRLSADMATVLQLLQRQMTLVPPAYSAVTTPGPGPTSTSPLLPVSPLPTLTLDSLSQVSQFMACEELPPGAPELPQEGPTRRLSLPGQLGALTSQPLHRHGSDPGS

Cytochrome P450 3A4 = Cytochrome P450 3A4 (Homo sapiens, UniProt P08684); experiment: Inhibition of CYP3A4 (unknown origin); type: ADME
Cytochrome P450 3A4, sequence (P08684 whole entry): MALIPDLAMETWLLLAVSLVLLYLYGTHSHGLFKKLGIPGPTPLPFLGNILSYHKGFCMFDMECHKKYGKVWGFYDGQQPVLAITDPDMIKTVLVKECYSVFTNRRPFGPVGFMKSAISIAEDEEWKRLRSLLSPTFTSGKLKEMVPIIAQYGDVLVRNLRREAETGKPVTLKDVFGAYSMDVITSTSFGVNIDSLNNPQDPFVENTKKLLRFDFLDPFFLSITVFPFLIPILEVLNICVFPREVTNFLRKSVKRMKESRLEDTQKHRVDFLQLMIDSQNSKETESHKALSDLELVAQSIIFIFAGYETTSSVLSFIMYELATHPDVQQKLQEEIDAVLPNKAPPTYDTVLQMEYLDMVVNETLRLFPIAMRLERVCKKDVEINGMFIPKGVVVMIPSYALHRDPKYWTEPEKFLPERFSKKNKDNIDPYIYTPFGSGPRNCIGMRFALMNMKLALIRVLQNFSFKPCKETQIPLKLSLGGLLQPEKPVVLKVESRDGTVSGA

[21] = Metabolic stability in human liver microsomes assessed as intrinsic clearance at 1 uM preincubated for 2 mins followed by NADPH addition and measured upto 30 mins by LC-MS/MS analysis; type: ADME, Microsome; details: time < 32 min, read-out: CLH (converted)
[22] = Oral bioavailability in cynomolgus monkey at 3 mg/kg measured up to 24 hrs; type: ADME, organism-based, Macaca fascicularis; details: in vivo
[23] = Protein binding in human plasma assessed as free fraction after 2 hrs by equilibrium dialysis method; type: ADME, cell-free

CN1C[C@@H]2CC[C@H](C1=O)N2c1ncc2[nH]nc(-c3cnn(C4CCC4)c3)c2n1
solubility [1]: 557 µg/mL (≈ 1470 µM)
half-life [2]: 6.6 h
bioavailability [3]: 100%
IC50 (Activin receptor type-1): 477 nM
CL [4]: 12 mL/min/kg
AUC(0-inf) [5]: 2.21 µM·h
IC50 [6]: 16 nM
Cmax [7]: 5550 nM
IC50 (Cytochrome P450 2D6): > 10000 nM
half-life [8]: 3.2 h
IC50 [9]: 184 nM
IC50 [10]: 157 nM
CL [11]: 23.3 mL/min/kg
Vdss [12]: 2.6 L/kg
AUC(0-inf) [13]: 5.82 µM·h
Papp at 2 h [14]: 4 ×10⁻⁶ cm/s
Vdss [15]: 0.66 L/kg
IC50 [16]: 24 nM
IC50 (Cytochrome P450 2B6): > 10000 nM
Cmax [17]: 825 nM
IC50 [18]: 1.8 nM
IC50 (Cytochrome P450 1A2): > 10000 nM
solubility [19]: > 400 µg/mL
IC50 (Cytochrome P450 2C9): > 10000 nM
concentration at 2 h [20]: 760 nM
inhibition at 10 µM (hERG (KCNH2)): < 10%
IC50 (Cytochrome P450 3A4): > 10000 nM
CLint scaled at 1 µM [21]: 16.7 mL/min/kg
bioavailability [22]: 20%
fraction unbound at 2 h [23]: 0.11
